In assay [1] the target is recombinant RORγ Ligand Binding Domain (LBD) protein (Homo sapiens (Human), UniProt P51449). Nature of the assay: Radio-Ligand RORγ Binding Assay (Assay 1). As to conditions: radio-ligand 25-hydroxy [26,27-3H]-cholesterol competition. The protocol: Radio-Ligand RORγ Binding Assay (Assay 1)
Compounds described herein were tested for ability to bind to RORγ in a cell-free competition assay with commercially available radio-ligand (RL), 25-hydroxy [26,27-^3H]-cholesterol (PerkinElmer, Cat. # NET674250UC), for a ligand binding site on a recombinant RORγ Ligand Binding Domain (LBD) protein expressed as a 6×His-Glutathione-S-Transferase (GST) fusion. […] The plate was shaken at 700 rpm for 20 min and incubated for 10 min at rt, after which 40 μL of poly-Lys YSi SPA beads (PerkinElmer, Cat. # RPNQ0010) were added to achieve 50 μg of the beads per well. The plate was incubated on an orbital shaker for 20 min and then for 10 min without agitation at rt. SPA signal for tritium beta radiation was registered on PerkinElmer Microbeta plate reader. […] The percent inhibition vs. concentration data were fit into a four-parameter model, and IC50 values were calculated from the fit as the concentrations corresponding to the inflection points on the dose-response curves. […]

For assay [2], the target named is full-length RORγt in Jurkat cells (Homo sapiens (Human), UniProt P51449). Nature of the assay: RORγt 5×RORE Assay in Jurkat Cells (Assay 2). It counts as cell-based. As to conditions: RORγt 5×RORE Nanoluc reporter. As for the experimental part: [formula] RORγt 5×RORE Assay in Jurkat Cells (Assay 2)
Chain of full-length RORγt in Jurkat cells (P51449 other isoform, or with tags, fused parts or gaps): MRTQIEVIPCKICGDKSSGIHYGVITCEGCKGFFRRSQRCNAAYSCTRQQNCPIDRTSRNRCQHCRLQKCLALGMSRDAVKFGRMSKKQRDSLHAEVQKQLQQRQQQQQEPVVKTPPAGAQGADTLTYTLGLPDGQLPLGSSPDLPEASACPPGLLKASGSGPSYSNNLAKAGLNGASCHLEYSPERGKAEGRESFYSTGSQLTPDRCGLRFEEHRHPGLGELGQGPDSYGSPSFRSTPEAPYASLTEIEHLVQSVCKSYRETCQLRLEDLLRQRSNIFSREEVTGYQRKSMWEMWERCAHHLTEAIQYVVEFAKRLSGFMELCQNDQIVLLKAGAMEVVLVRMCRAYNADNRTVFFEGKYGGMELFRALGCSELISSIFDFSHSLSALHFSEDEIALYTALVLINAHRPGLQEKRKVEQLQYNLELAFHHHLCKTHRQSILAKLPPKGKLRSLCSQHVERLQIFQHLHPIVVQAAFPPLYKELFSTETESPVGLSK
Compounds described herein were tested for RORγ inverse agonist activity in a cell-based, transcriptional activity assay. […] (Promega, Cat. # N1021) using KpnI and HindIII restriction sites. […] Tested compounds were added to the cells in the same media (final concentration of DMSO was 0.1% (v/v)), and the plates were incubated at 37° C./5% CO2 for 16-18 hrs. Luciferase activity in the conditioned supernatants was determined with NanoGlo® assay reagents (Promega, Cat.# N1130).

Chain of recombinant RORγ Ligand Binding Domain (LBD) protein (P51449 269-508): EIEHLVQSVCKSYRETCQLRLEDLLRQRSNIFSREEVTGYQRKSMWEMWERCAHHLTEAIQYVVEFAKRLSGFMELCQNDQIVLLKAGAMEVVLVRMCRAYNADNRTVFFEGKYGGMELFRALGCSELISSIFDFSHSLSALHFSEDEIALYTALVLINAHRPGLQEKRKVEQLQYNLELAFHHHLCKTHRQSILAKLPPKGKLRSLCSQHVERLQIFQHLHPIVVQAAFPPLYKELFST

As a reminder, the Ki is a measure of affinity in units of concentration, obtained from inhibition or displacement. Usually IC50 stands for the concentration that gives 50% inhibition. Lower therefore signals inhibition by little substance. With `CCS(=O)(=O)c1ccc([C@H](CO)NC(=O)c2ccc3c(c2)nc(Cc2ccc(OC(F)(F)F)cc2)n3C2CC2)cc1` [BE-47, (R)-1-cyclopropyl-N-(1-(4-(ethylsulfonyl)phenyl)-2-hydroxyethyl)-2-(4-(trifluoromethoxy)benzyl)-1H-benzo[d]imidazole-5-carboxamide], the Ki in assay [1] was under 100 nM. The half-maximal inhibitory concentration (IC50) in assay [2] was under 100 nM.

Turning to `CCS(=O)(=O)c1ccc([C@H](CO)NC(=O)c2ccc3c(c2)nc(Oc2ccc(C(F)(F)F)cc2)n3C2CC2)cc1` [BE-7, (R)-1-cyclopropyl-N-(1-(4-(ethylsulfonyl)phenyl)-2-hydroxyethyl)-2-(4-(trifluoromethyl)phenoxy)-1H-benzo[d]imidazole-5-carboxamide], the inhibitory constant (Ki) in assay [1] was under 100 nM. In assay [2], the IC50 is under 100 nM.

Turning to `CCS(=O)(=O)c1ccc(CNC(=O)c2ccc3c(c2)nc(C[C@H]2CC[C@@H](C(F)(F)F)CC2)n3C2CC2)nc1` [BE-27.2, 1-cyclopropyl-N-((5-(ethylsulfonyl)pyridin-2-yl)methyl)-2-(((1s,4s)-4-(trifluoromethyl)cyclohexyl)methyl)-1H-benzo[d]imidazole-5-carboxamide], in assay [1], the Ki was under 100 nM. The molecule further displayed a half-maximal inhibitory concentration (IC50) in assay [2] of over 1000 nM.

Regarding `CCS(=O)(=O)c1ccc(CNC(=O)c2ccc3c(c2)nc(C[C@H]2CC[C@H](C(F)(F)F)CC2)n3CC(C)C)nc1` [BE-26.1, N-((5-(ethylsulfonyl)pyridin-2-yl)methyl)-1-isobutyl-2-(((1r,4r)-4-(trifluoromethyl)cyclohexyl)methyl)-1H-benzo[d]imidazole-5-carboxamide], the inhibition constant (Ki) in assay [1] was under 100 nM. The molecule further registered an IC50 in assay [2] of over 1000 nM.

On to `CCS(=O)(=O)c1ccc(CNC(=O)c2cnc3c(c2)nc(C[C@H]2CC[C@H](C(F)(F)F)CC2)n3C2CC2)cc1` [AB-1.1, 3-cyclopropyl-N-(4-(ethylsulfonyl)benzyl)-2-(((1r,4r)-4-(trifluoromethyl)cyclohexyl)methyl)-3H-imidazo[4,5-b]pyridine-6-carboxamide], for which the inhibition constant Ki in assay [1] is under 100 nM. The same molecule came in with a concentration for half-maximal inhibition (IC50) in assay [2] of under 100 nM.

For `CCn1c(C(=O)c2ccc(C(F)(F)F)cn2)cc2cc(C(=O)N[C@@H](CO)c3ccc(S(=O)(=O)CC)cc3)ccc21` [IN-22, (R)-1-ethyl-N-(1-(4-(ethylsulfonyl)phenyl)-2-hydroxyethyl)-2-(5-(trifluoromethyl)picolinoyl)-1H-indole-5-carboxamide], in assay [1], the Ki is under 100 nM. In assay [2], this molecule gave an IC50 of under 100 nM.

`CCn1c(Oc2ccc(C(F)(F)F)cc2)nc2cc(C(=O)N[C@@H](CO)c3ccc(S(=O)(=O)CC)cc3)ccc21` [BE-8, (R)-1-ethyl-N-(1-(4-(ethylsulfonyl)phenyl)-2-hydroxyethyl)-2-(4-(trifluoromethyl)phenoxy)-1H-benzo[d]imidazole-5-carboxamide]: in assay [1], the inhibition constant Ki was under 100 nM. For the same molecule, the IC50 in assay [2] was under 100 nM.

Consider `CCS(=O)(=O)c1ccc(CNC(=O)c2ccc3c(c2)nc(O[C@H]2CC[C@H](C(F)(F)F)CC2)n3CC(C)C)cc1` [BE-4.1, N-(4-(ethylsulfonyl)benzyl)-1-isobutyl-2-(((1r,4r)-4-(trifluoromethyl)cyclohexyl)oxy)-1H-benzo[d]imidazole-5-carboxamide], for which, in assay [1], the Ki was under 100 nM. Moreover, the IC50 in assay [2] lay in the range of 100 to 1000 nM.

For the molecule `CCS(=O)(=O)c1ccc(CNC(=O)c2ccc3c(c2)nc(O[C@H]2CC[C@@H](C(F)(F)F)CC2)n3CC(C)C)cc1` [BE-4.2, N-(4-(ethylsulfonyl)benzyl)-1-isobutyl-2-(((1s,4s)-4-(trifluoromethyl)cyclohexyl)oxy)-1H-benzo[d]imidazole-5-carboxamide], the inhibition constant (Ki) in assay [1] is under 100 nM. The molecule also showed an IC50 in assay [2] of over 1000 nM.

As to `CCn1c(CN2CCC(C(F)(F)F)CC2)cc2cc(C(=O)N[C@@H](CO)c3ccc(S(=O)(=O)CC)cc3)ccc21` [IN-10, (R)-1-ethyl-N-(1-(4-(ethylsulfonyl)phenyl)-2-hydroxyethyl)-2-((4-(trifluoromethyl)piperidin-1-yl)methyl)-1H-indole-5-carboxamide], the inhibitory constant (Ki) in assay [1] is under 100 nM. In assay [2], this molecule yielded an IC50 of under 100 nM.

For the molecule `CCn1c(CN2CCC(C(F)(F)F)CC2)cc2cc(C(=O)N[C@@H](CO)c3ccc(S(=O)(=O)CC)cn3)ccc21` [IN-11, (R)-1-ethyl-N-(1-(5-(ethylsulfonyl)pyridin-2-yl)-2-hydroxyethyl)-2-((4-(trifluoromethyl)piperidin-1-yl)methyl)-1H-indole-5-carboxamide], the Ki in assay [1] is under 100 nM. Further, the half-maximal inhibitory concentration (IC50) in assay [2] was under 100 nM.

Take `CCS(=O)(=O)c1ccc([C@H](CO)NC(=O)c2ccc3c(c2)nc(Oc2ccc(C(F)(F)F)cc2)n3C2CC2)nc1` [BE-70, (R)-1-cyclopropyl-N-(1-(5-(ethylsulfonyl)pyridin-2-yl)-2-hydroxyethyl)-2-(4-(trifluoromethyl)phenoxy)-1H-benzo[d]imidazole-5-carboxamide]: in assay [1], the Ki was under 100 nM. Besides, in assay [2], the IC50 is under 100 nM.

For `CCS(=O)(=O)c1ccc(CNC(=O)c2ccc3c(c2)nc(C[C@H]2CC[C@@H](C(F)(F)F)CC2)n3CC(C)C)cc1` [BE-19.2, N-(4-(ethylsulfonyl)benzyl)-1-isobutyl-2-(((1s,4s)-4-(trifluoromethyl)cyclohexyl)methyl)-1H-benzo[d]imidazole-5-carboxamide], the inhibitory constant (Ki) in assay [1] was under 100 nM. In addition, in assay [2], the IC50 is over 1000 nM.

Regarding `CCS(=O)(=O)c1ccc([C@H](CO)NC(=O)c2ccc3c(c2)nc(CN2CCC(C(F)(F)F)CC2)n3C2CC2)cc1` [BE-54, (R)-1-cyclopropyl-N-(1-(4-(ethylsulfonyl)phenyl)-2-hydroxyethyl)-2-((4-(trifluoromethyl)piperidin-1-yl)methyl)-1H-benzo[d]imidazole-5-carboxamide], the Ki in assay [1] was under 100 nM. The molecule further had a concentration for half-maximal inhibition (IC50) in assay [2] of under 100 nM.

In the case of `CCS(=O)(=O)c1ccc(CNC(=O)c2ccc3c(c2)nc(Cc2ccc(C(F)(F)F)cc2)n3CC(F)(F)F)cc1` [BE-37, N-(4-(ethylsulfonyl)benzyl)-1-(2,2,2-trifluoroethyl)-2-(4-(trifluoromethyl)benzyl)-1H-benzo[d]imidazole-5-carboxamide], the Ki in assay [1] is under 100 nM. This molecule showed an IC50 in assay [2] of under 100 nM.

Regarding `CCS(=O)(=O)c1ccc(CNC(=O)c2ccc3c(c2)nc(Cc2ccc(Cl)cn2)n3C2CC2)cc1` [BE-52, 2-((5-chloropyridin-2-yl)methyl)-1-cyclopropyl-N-(4-(ethylsulfonyl)benzyl)-1H-benzo[d]imidazole-5-carboxamide], in assay [1], the Ki was under 100 nM. For the same molecule, the half-maximal inhibitory concentration (IC50) in assay [2] is over 1000 nM.

On to `CCS(=O)(=O)c1ccc(CNC(=O)c2ccc3c(c2)cc(CN2CCC(C(F)(F)F)CC2)n3C2CC2)cc1` [IN-12, 1-cyclopropyl-N-(4-(ethylsulfonyl)benzyl)-2-((4-(trifluoromethyl)piperidin-1-yl)methyl)-1H-indole-5-carboxamide], for which the Ki in assay [1] is under 100 nM. In assay [2], this molecule yielded a concentration for half-maximal inhibition (IC50) of under 100 nM.

As for `CCS(=O)(=O)c1ccc(CNC(=O)c2ccc3c(c2)nc(CN2CCC(C(F)(F)F)CC2)n3CC(C)C)cc1` [BE-53, N-(4-(ethylsulfonyl)benzyl)-1-isobutyl-2-((4-(trifluoromethyl)piperidin-1-yl)methyl)-1H-benzo[d]imidazole-5-carboxamide], the Ki in assay [1] is under 100 nM. In assay [2], this molecule returned a concentration for half-maximal inhibition (IC50) of under 100 nM.

Turning to `CCS(=O)(=O)c1ccc(CNC(=O)c2ccc3c(c2)nc(C[C@H]2CC[C@@H](OC)CC2)n3C2CC2)cc1` [BE-46.2, 1-cyclopropyl-N-(4-(ethylsulfonyl)benzyl)-2-(((1s,4s)-4-methoxycyclohexyl)methyl)-1H-benzo[d]imidazole-5-carboxamide], the Ki in assay [1] was under 100 nM. The 50% inhibitory concentration (IC50) in assay [2] was over 1000 nM.

`CS(=O)(=O)c1ccc([C@H](CO)NC(=O)c2ccc3c(c2)nc(C[C@H]2CC[C@H](C(F)(F)F)CC2)n3C2CC2)cc1` [BE-32, 1-cyclopropyl-N-((R)-2-hydroxy-1-(4-(methylsulfonyl)phenyl)ethyl)-2-(((1r,4R)-4-(trifluoromethyl)cyclohexyl)methyl)-1H-benzo[d]imidazole-5-carboxamide]: in assay [1], the Ki is under 100 nM. The molecule further came in with a half-maximal inhibitory concentration (IC50) in assay [2] of under 100 nM.

Regarding `CCn1c(OCC2CC(F)(F)C2)nc2cc(C(=O)N[C@@H](CO)c3ccc(S(=O)(=O)CC)cc3)ccc21` [BE-13, (R)-2-((3,3-difluorocyclobutyl)methoxy)-1-ethyl-N-(1-(4-(ethylsulfonyl)phenyl)-2-hydroxyethyl)-1H-benzo[d]imidazole-5-carboxamide], the Ki in assay [1] was under 100 nM. The molecule also yielded a 50% inhibitory concentration (IC50) in assay [2] of over 1000 nM.

For the molecule `CCn1c(C[C@H]2CC[C@H](C(F)(F)F)CC2)nc2cc(C(=O)NCc3ccc(S(=O)(=O)CC)cc3)ccc21` [BE-20, 1-ethyl-N-(4-(ethylsulfonyl)benzyl)-2-(((1r,4r)-4-(trifluoromethyl)cyclohexyl)methyl)-1H-benzo[d]imidazole-5-carboxamide], the Ki in assay [1] is under 100 nM. This molecule also registered a concentration for half-maximal inhibition (IC50) in assay [2] of under 100 nM.

Source of the values: patent US10301261B2, “Substituted indoles as modulators of ROR-gamma” (Vitae Pharmaceuticals, LLC, priority 2015, dated 2019).
